Reference: PubChem BioAssay (NCI)
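All cell lines were grown in 96-well plates and treated with compound for 48 hours. The concentration for full growth arrest is given as TGI.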

Tests used:
Experiment in all cases: inhibition of tumour cell growth, NCI panel, 48 h
BT-549 breast = system: BT-549 breast
CAKI-1 renal = system: CAKI-1 renal
COLO 205 colon = system: COLO 205 colon
EKVX NSCLC = system: EKVX NSCLC
HCC-2998 colon = system: HCC-2998 colon
HL-60(TB) leukemia = system: HL-60(TB) leukemia
IGROV1 ovarian = system: IGROV1 ovarian
LOX IMVI melanoma = system: LOX IMVI melanoma
MDA-MB-231 breast = system: MDA-MB-231 breast
MDA-MB-435 = system: MDA-MB-435
MDA-N = system: MDA-N
NCI-H226 lung = system: NCI-H226 lung
OVCAR-3 ovarian = system: OVCAR-3 ovarian
SF-268 CNS = system: SF-268 CNS
SR leukemia = system: SR leukemia
SW-620 colon = system: SW-620 colon
TK-10 renal = system: TK-10 renal

| SMILES | TGI (BT-549 breast) [µM] | TGI (CAKI-1 renal) [µM] | TGI (COLO 205 colon) [µM] | TGI (EKVX NSCLC) [µM] | TGI (HCC-2998 colon) [µM] | TGI (HL-60(TB) leukemia) [µM] | TGI (IGROV1 ovarian) [µM] | TGI (LOX IMVI melanoma) [µM] | TGI (MDA-MB-231 breast) [µM] | TGI (MDA-MB-435) [µM] | TGI (MDA-N) [µM] | TGI (NCI-H226 lung) [µM] | TGI (OVCAR-3 ovarian) [µM] | TGI (SF-268 CNS) [µM] | TGI (SR leukemia) [µM] | TGI (SW-620 colon) [µM] | TGI (TK-10 renal) [µM] |
| --- | --- | --- | --- | --- | --- | --- | --- | --- | --- | --- | --- | --- | --- | --- | --- | --- | --- |
| CSc1c(C#N)c(N)nc2c(N=Nc3ccc(Br)cc3)c(N)nn12 | 37.3 | 26 | 25.1 | 23.9 | 26 | 9.1 | 8.82 | 3.58 | 15.9 | 25 | 18.8 | 39.5 | 6.77 | 13.2 | 6.76 | 12.7 | 29.7 |
| COC12CCCN1c1ccn(Cc3ccccc3)c(=O)c1C2=O (stereo not given) | > 100 | > 100 | > 100 | > 100 | > 100 | > 100 | > 100 | > 100 | > 100 | > 100 | > 100 | > 100 | > 100 | > 100 | > 100 | > 100 | > 100 |
| COC1CC(OC2C(C)OC(OC3C(C)OC(OC4C(O)CC(O[C@H]5CC[C@@]6(C)C(=CC[C@]7(O)[C@@H]6C[C@@H](OC(C)=O)[C@@]6(C)[C@]7(O)CC[C@@]6(O)C(C)=O)C5)OC4C)CC3OC)CC2OC)OC(C)C1O (stereo not given in full) | > 12.5 | > 12.5 | > 12.5 | > 12.5 | > 12.5 | > 12.5 | > 12.5 | > 12.5 | > 12.5 | > 12.5 | > 12.5 | > 12.5 | > 12.5 | > 12.5 | > 12.5 | > 12.5 | > 12.5 |
| COc1ccc(/C=C/C(=O)c2cc(C(C)(C)C)c(O)c(C(C)(C)C)c2)cc1OC | > 77.6 | > 90 | 31.9 | > 100 | 7.74 | 17.6 | > 100 | 29.3 | 51.6 | 21.2 | > 33.3 | 43 | > 100 | > 67.7 | 5.83 | > 100 | 47.4 |
| COC(=O)C1=C(OC(=O)/C=C/c2ccccc2)C(C(=O)OC)[C@@]2(O)[C@@H](C(=O)OC)[C@H](C)C[C@@H]1[C@@H]2C(=O)OC (stereo not given in full) | 56.1 | 32.6 | 74.8 | 65.2 | 48.7 | > 100 | 63.3 | 93.2 | 43.9 | > 100 | > 100 | > 100 | 54.1 | 92 | > 100 | > 100 | > 100 |
| COc1cc2oc(=O)cc(C)c2cc1O | > 100 | > 100 | > 100 | > 100 | > 100 | > 100 | > 100 | > 100 | > 100 | > 100 | > 100 | > 100 | > 100 | > 100 | > 100 | > 100 | > 100 |
| CCN(CC)C(=S)Nc1ccc(-c2cc3ccc(O)cc3oc2=O)cc1 | 85 | > 100 | > 100 | > 100 | 39.8 | 23.2 | > 100 | > 100 | > 100 | > 100 | > 100 | 99.5 | 78.3 | > 100 | 93.5 | > 100 | > 100 |
| C=C1c2nc3ccccc3n2C=C(c2ccc(C)cc2)N1c1ccc(C)cc1 | > 100 | > 100 | > 89.3 | > 100 | > 72.9 | 64.4 | > 100 | > 100 | > 100 | > 78.2 | > 92.3 | > 44.4 | > 100 | > 100 | > 74.3 | > 100 | > 100 |
| O=c1c2c3c(sc2nc2n1N=C(c1ccc(Cl)cc1)CS2)CCCC3 | > 100 | > 100 | > 100 | > 100 | > 100 | > 100 | > 100 | > 100 | > 100 | > 100 | > 100 | > 100 | > 100 | > 100 | > 100 | > 100 | > 100 |
| CC(=O)OCc1cncn1S(=O)(=O)c1ccc(C)cc1 | > 100 | > 100 | > 100 | > 100 | > 100 | 50.2 | > 100 | > 100 | > 100 | > 78.9 | 45.6 | > 100 | > 100 | > 100 | > 100 | > 100 | > 100 |
